Results on one compound are retold here after ChEMBL document CHEMBL3526085, “Decreased hepatic breast cancer resistance protein expression and function in multidrug resistance-associated protein 2-deficient (TR⁻) rats” (Drug Metab Dispos, 2011).

SMILES strings stand for the structures.

This data set has as its system Hepatocyte. The note with it: rat, hepatocytes, 10 min, 5 µM.

Turning to `O=C(O)C[C@H](O)C[C@H](O)/C=C/c1c(C2CC2)nc2ccccc2c1-c1ccc(F)cc1` [PITAVASTATIN], the CLb amounted to 52%.
